A word on the IC50: it is the midpoint of a concentration-inhibition curve. As a reminder, the inhibition is the share of the control response that was lost under treatment. For orientation: TGI means the reduction of tumour growth relative to the control group. Low values mean little slowing of growth, high ones much slowing of growth.

The structures appear in SMILES notation. Bounds are passed on as bounds.

For one assay, the target named is T1, Wild-Type ALK (Homo sapiens, UniProt Q9UM73).
T1 construct: purchased Life Technology
T1 sequence (Q9UM73 19-1620): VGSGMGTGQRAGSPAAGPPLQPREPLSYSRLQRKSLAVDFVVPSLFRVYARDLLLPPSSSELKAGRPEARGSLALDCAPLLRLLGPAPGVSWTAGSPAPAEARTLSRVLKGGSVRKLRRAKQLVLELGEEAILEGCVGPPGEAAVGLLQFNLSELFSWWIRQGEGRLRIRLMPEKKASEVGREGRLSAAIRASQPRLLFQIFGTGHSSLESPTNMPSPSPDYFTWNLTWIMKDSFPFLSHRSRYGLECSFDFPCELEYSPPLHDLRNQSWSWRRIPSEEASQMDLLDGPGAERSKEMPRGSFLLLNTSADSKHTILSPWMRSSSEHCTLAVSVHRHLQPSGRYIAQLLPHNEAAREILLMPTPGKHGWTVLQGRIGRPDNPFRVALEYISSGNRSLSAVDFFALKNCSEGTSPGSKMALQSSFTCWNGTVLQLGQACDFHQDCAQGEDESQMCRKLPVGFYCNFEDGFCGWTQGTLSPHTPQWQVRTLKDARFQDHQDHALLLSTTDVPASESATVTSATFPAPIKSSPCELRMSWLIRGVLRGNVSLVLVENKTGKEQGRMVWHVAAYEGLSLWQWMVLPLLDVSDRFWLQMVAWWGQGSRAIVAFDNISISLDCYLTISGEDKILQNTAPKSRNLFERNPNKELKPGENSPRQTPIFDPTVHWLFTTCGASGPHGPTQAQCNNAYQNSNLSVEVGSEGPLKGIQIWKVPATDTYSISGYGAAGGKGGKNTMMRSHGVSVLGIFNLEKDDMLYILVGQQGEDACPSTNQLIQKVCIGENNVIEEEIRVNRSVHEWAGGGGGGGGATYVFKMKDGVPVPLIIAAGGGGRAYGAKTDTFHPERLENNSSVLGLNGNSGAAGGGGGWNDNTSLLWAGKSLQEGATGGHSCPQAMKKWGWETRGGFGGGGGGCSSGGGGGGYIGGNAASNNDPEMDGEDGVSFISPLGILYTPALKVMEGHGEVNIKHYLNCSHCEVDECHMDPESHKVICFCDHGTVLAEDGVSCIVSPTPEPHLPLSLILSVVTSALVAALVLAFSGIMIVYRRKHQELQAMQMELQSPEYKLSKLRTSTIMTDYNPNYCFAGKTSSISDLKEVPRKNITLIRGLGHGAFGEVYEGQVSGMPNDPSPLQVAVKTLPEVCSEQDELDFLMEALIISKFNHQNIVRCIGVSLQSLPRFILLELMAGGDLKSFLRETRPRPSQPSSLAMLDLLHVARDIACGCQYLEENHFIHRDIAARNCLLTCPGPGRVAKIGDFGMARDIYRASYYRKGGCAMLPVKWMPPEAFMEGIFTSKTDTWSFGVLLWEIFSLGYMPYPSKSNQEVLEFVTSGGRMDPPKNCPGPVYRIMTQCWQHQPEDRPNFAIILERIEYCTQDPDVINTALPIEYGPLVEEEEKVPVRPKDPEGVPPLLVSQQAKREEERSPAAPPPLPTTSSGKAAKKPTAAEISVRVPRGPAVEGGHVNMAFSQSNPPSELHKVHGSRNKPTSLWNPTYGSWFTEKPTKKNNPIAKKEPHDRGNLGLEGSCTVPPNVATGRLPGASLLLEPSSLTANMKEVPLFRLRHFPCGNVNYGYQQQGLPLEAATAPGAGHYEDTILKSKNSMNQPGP
The assay can be described thus: Z'-LYTE (FRET) ALK kinase inhibitory activity. The format is biochemical. The method, then: (§1) The kinase activity assay was determined by using kinase assay panel (Life Technology) and the result was in table 1.

The next assay deals with T2, ALK L1196M (Homo sapiens, UniProt Q9UM73, L1196M).
T2 construct: purchased Life Technology
T2 sequence (Q9UM73 19-1620 L1196M): as the sequence (Q9UM73 19-1620) above, with L1178M counted along it
Description: LanthaScreen Eu Kinase Binding Assay (TR-FRET) on ALK mutant.
Source text: Meanwhile, The LanthaScreen® Eu Kinase Binging Assay (TR-FRET) method was used for determining ALK Mutants (such as ALK L1196M) inhibitory activity IC50. LanthaScreen Eu kinase binding experiment detected Alexa Fluor conjugate or kinase “tracer” binding by adding Eu labeled antibodies or anti-label antibodies. The combination of tracer and antibody with kinase leads to a high level of FRET, whereas the use of kinase inhibitors in place of tracer may cause FRET loss.
as §1
(In general: Time-resolved FRET reads energy transfer from a long-lived donor to a nearby acceptor.)

In another assay the target is T3, TEL-ALK-G1202R-BaF3 (Homo sapiens, UniProt Q9UM73, G1202R, cells depend on it).
T3 construct: fused on or other part: TEL (ETV6) N-terminal oligomerising part fused before the ALK intracellular/kinase part; P41212 (Transcription factor ETV6)
T3 sequence (Q9UM73 whole entry G1202R, the tested form may be a part): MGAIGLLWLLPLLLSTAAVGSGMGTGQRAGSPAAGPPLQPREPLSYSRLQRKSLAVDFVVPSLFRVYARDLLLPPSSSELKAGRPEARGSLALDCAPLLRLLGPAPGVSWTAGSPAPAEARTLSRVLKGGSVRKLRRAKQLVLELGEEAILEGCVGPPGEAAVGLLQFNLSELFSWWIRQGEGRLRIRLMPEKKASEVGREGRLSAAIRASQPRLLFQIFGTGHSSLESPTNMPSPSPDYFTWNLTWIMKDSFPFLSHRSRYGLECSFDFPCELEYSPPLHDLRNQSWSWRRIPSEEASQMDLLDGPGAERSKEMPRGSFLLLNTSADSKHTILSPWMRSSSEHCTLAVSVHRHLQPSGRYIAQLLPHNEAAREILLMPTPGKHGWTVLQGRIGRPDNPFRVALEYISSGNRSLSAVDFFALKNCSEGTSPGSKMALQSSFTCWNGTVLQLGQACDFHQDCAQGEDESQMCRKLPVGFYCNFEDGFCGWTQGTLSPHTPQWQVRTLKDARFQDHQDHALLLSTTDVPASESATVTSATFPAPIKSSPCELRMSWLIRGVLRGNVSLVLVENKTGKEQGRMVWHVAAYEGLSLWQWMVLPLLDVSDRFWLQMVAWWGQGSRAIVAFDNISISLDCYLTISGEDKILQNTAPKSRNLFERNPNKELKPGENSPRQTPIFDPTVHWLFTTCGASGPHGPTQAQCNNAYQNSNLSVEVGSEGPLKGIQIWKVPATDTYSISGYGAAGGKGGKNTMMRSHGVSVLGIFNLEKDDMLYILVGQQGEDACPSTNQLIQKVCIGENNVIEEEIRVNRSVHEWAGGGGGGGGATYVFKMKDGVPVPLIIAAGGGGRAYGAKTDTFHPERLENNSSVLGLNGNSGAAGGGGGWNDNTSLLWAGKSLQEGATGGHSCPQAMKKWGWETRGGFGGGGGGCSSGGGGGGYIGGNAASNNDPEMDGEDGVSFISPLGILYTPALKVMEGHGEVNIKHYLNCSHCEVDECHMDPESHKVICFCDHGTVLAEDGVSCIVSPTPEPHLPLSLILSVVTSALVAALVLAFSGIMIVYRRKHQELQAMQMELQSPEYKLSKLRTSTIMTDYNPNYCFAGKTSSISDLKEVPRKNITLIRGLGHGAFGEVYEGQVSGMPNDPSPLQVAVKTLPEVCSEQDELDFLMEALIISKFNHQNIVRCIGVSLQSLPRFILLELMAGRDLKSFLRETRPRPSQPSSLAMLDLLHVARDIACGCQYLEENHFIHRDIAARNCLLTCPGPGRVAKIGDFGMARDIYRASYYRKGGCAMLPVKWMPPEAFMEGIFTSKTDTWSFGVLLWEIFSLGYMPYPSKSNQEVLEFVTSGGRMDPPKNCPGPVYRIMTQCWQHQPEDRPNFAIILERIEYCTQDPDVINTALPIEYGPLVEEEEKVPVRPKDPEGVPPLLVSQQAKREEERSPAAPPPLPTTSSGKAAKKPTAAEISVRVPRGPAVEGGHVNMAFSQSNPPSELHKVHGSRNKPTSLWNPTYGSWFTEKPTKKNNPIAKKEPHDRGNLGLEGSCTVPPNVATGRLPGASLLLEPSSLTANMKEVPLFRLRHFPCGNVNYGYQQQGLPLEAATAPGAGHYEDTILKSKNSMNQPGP
The assay can be described thus: Cell proliferation experiment (Cell-Titer GLO), TEL-ALK-G1202R-BaF3. It counts as cell-based. To be noted: 72 h, read-out: IC50 TEL-ALK G1202R-BaF3. The method, then:
(§2) Compounds to be tested: Positive compound Ceritinib and the compounds obtained by the examples of the present invention.
(§3) Cell lines: Karpas-299 and NCI-H3122 which were purchased from the Nanjing kebai biotechnology Co. LTD; TEL-ALK-F1174L-BaF3, TEL-ALK-G1202R-BaF3, TEL-ALK-C1156Y-BaF3 and TEL-ALK-L1196M-BaF3 which were purchased from Hefei zhongkopruisheng biological medicine technology Co. LTD.
(§4) Method: Cells were seeded in 96-well plates for 24 h in growth media containing 10% fetalbovine serum (FBS) and cultured overnight at 37° C. The following day, serial dilutions of compounds or appropriate control were added to the designated wells, and cells were incubated at 37° C. for 72 h. A Cell Titer Glo assay (Promega) was then performed to determine the relative cell numbers. IC50 values were calculated by concentration-response curve fitting using a four-parameter analytical method with Graphpad 6.0. Drug inhibition rate (%)=100%−[OD(Compound)−OD(blank)]/[OD(vehicle)−OD(blank)]×100% Equation: […]

A further assay has as its system NCI-H3122. The assay can be described thus: Cell proliferation experiment (Cell-Titer GLO), NCI-H3122. It counts as cell-based. As to conditions: Homo sapiens, 72 h. The method, then:
as §2, §3, §4

The target of another assay is T4, TEL-ALK-F1174L-BaF3 (Homo sapiens, UniProt Q9UM73, F1174L, cells depend on it).
T4 construct: fused on or other part: TEL (ETV6) N-terminal oligomerising part fused before the ALK intracellular/kinase part; P41212 (Transcription factor ETV6)
T4 sequence (Q9UM73 whole entry F1174L, the tested form may be a part): as the sequence (Q9UM73 whole entry G1202R, the tested form may be a part) above, with F1174L, R1202G counted along it
The assay can be described thus: Cell proliferation experiment (Cell-Titer GLO), TEL-ALK-F1174L-BaF3. The format is cell-based. To be noted: 72 h, read-out: IC50 TEL-ALK F1174L-BaF3. The method, then: as §2, §3, §4

Assay [1] has as its system zebrafish iridophore pigment cells. Description: Phenotypic screening of zebrafish: effect on iridophore pigment cells. The format is in vivo, Zebrafish (Danio rerio). To be noted: 15 μM. From the text:
Zebrafish (Danio rerio) is emerging as a predictive vertebrate animal model for in vivo assessment of drug efficacy, toxicity and safety. An important advantage of the zebrafish animal model is that the morphological and molecular basis of tissues and organs is either identical or similar to other vertebrates, including humans. The sequence and presumed function of many genes that are important for vertebrates are conserved in the zebrafish and the homology is as high as 85%. It has been shown that loss-of-function alleles for leukocyte tyrosine kinase (Ltk), the sister kinase to ALK, lack iridophores in zebrafish (Lopes, S. S., Yang, X., et al. (2008). Leukocyte tyrosine kinase functions in pigment cell development. PLoS Genet, 4.). Iridophores are neural crest-derived pigment cells that are clearly visible as shiny silver cells in the developing zebrafish embryo which distribute in the head, eyes, the lateral spine. ALK and LTK are sister kinase.
Therefore, using this principle, we investigated the effect of the compounds on normal zebrafish iridophore pigment cells to explore the compound's anti-ALK activity in vivo.
Method: Fish eggs of 6 hpf (hours post impurity) were randomly divided into groups. Then, subjects with different concentrations were added and the images were collected at 3 dpf (days post impurity). Then, the IOD (integrated option density) values of zebrafish dorsal iridophore pigment cells from the release pore to the caudal position were analyzed using ImageJ software. The Graphpad prism6.0 was used to conduct statistical analysis on Dunnett's t-test, and p<0.05 indicates statistical difference. The calculation formula of iridophore pigment inhibition rate is as follows: Inhibition rate (%)=[1−IOD(Compound)/IOD(vehicle)]×100%

A further assay relates to Karpas-299. The assay can be described thus: Cell proliferation experiment (Cell-Titer GLO), Karpas-299. It counts as cell-based. To be noted: Homo sapiens, 72 h. The method, then: as §2, §3, §4
The test system of the next assay is NCI-H2228 tumor cells. Description: Subcutaneous NCI-H2228 lung cancer xenograft model. The format is in vivo, BALB/C nude mice. The method, then: BALB/C nude mice were inoculated at the right flank with NCI-H2228 tumor cells to establish the human Lung cancer xenograft model. […] The drug was administered for 14 days and then discontinued for two weeks. The therapeutic effect was evaluated by calculating the relative tumor proliferation rate T/C (%), and the tolerability of treatment was evaluated by the body weight changes and death.
Tumor volume (TV) were measured twice per week in two dimensions using a caliper, and the volume were expressed in mm^3 using the formula: V=0.5 a×b^2 where a and b are the long and short diameters of the tumor, respectively.
Relative tumor volume RTV=Vt/V0, Vt=tumor volume of the drug-treated group on a given day of the study, V0=tumor volume of the drug-treated group on the initial day of dosing.
The T/C value (%) is an indicator of tumor response to treatment, and one of commonly used anti-tumor activity endpoint; T/C %=TRTV/CRTV×100% Relative Tumor Growth Inhibition; % TGI=(1−T/C)×100%;

For the next assay, the target named is T5, TEL-ALK-C1156Y-BaF3 (Homo sapiens, UniProt Q9UM73, C1156Y, cells depend on it).
T5 construct: fused on or other part: TEL (ETV6) N-terminal oligomerising part fused before the ALK intracellular/kinase part; P41212 (Transcription factor ETV6)
T5 sequence (Q9UM73 whole entry C1156Y, the tested form may be a part): as the sequence (Q9UM73 whole entry G1202R, the tested form may be a part) above, with C1156Y, R1202G counted along it
The assay can be described thus: Cell proliferation experiment (Cell-Titer GLO), TEL-ALK-C1156Y-BaF3. It counts as cell-based. To be noted: 72 h, read-out: IC50 TEL-ALK C1156Y-BaF3. The method, then:
as §2, §3, §4

For `CCn1cc(Nc2nc(Nc3cc(C)c(C4CCNCC4)c4c3O[C@H](C)C4)ncc2Cl)c(S(=O)(=O)C(C)C)n1` [REX-D33, (R)-5-chloro-N^2-(2,5-dimethyl-4-(piperidin-4-yl)-2,3-dihydrobenzofuran-7-yl)-N^4-(1-ethyl-3-(isopropylsulfonyl)-1H-pyrazol-4-yl)pyrimidine-2,4-diamine], the IC50 against Wild-Type ALK worked out at 15.5 nM; on ALK L1196M, 2 nM; with NCI-H3122 it was 11.7 nM. Also, the GI50 is above 180 nM on TEL-ALK-G1202R-BaF3 and 33.4 nM on TEL-ALK-F1174L-BaF3.

`Cc1cc(Nc2ncc(Cl)c(Nc3cn(C)nc3S(=O)(=O)C(C)C)n2)c2c(c1C1CCN(CCO)CC1)C[C@@H](C)O2` [REX-D11, (R)-2-(4-(7-((5-chloro-4-((3-(isopropylsulfonyl)-1-methyl-1H-pyrazol-4-yl)amino)pyrimidin-2-yl)amino)-2,5-dimethyl-2,3-dihydrobenzofuran-4-yl)piperidin-1-yl)ethanol]: the IC50 on Wild-Type ALK was 8.46 nM; at ALK L1196M, below 0.5 nM; with NCI-H3122 it was 10.6 nM. Besides, the GI50 at TEL-ALK-G1202R-BaF3 is above 180 nM; on TEL-ALK-F1174L-BaF3, 10.7 nM.

Turning to `Cc1cc(Nc2ncc(Cl)c(Nc3cn(C)nc3S(=O)(=O)C(C)C)n2)c2c(c1C1CCN(C3CCNCC3)CC1)C[C@@H](C)O2` [REX-D13, (R)—N^2-(4-([1,4′-bipiperidin]-4-yl)-2,5-dimethyl-2,3-dihydrobenzofuran-7-yl)-5-chloro-N^4-(3-(isopropylsulfonyl)-1-methyl-1H-pyrazol-4-yl)pyrimidine-2,4-diamine], the results for the IC50 against Wild-Type ALK, at ALK L1196M and in the assay with NCI-H3122 were 18.8 nM, 1.02 nM and 33.7 nM, respectively. In addition, the GI50 is above 180 nM on TEL-ALK-G1202R-BaF3 and 94.3 nM at TEL-ALK-F1174L-BaF3.

For the molecule `Cc1cc(Nc2ncc(C(F)(F)F)c(Nc3cn(C4CC4)nc3S(=O)(=O)C(C)C)n2)c2c(c1C1CCN(C)CC1)C[C@@H](C)O2` [REX-D9, (R)—N^4-(1-cyclopropyl-3-(isopropylsulfonyl)-1H-pyrazol-4-yl)-N^2-(2,5-dimethyl-4-(1-methylpiperidin-4-yl)-2,3-dihydrobenzofuran-7-yl)-5-(trifluoromethyl)pyrimidine-2,4-diamine], the values for the IC50 on Wild-Type ALK, at ALK L1196M and in the assay with NCI-H3122 were 15.8 nM, 1.02 nM and 11.8 nM, respectively. The GI50 on TEL-ALK-G1202R-BaF3 was above 180 nM; on TEL-ALK-F1174L-BaF3 it was 51.8 nM.

For the molecule `Cc1cc(Nc2ncc(C(F)(F)F)c(Nc3cn(C)nc3S(=O)(=O)C(C)C)n2)c2c(c1C1CCN(CCO)CC1)C[C@@H](C)O2` [REX-D5, (R)-2-(4-(7-((4-((3-(isopropylsulfonyl)-1-methyl-1H-pyrazol-4-yl)amino)-5-(trifluoromethyl)pyrimidin-2-yl)amino)-2,5-dimethyl-2,3-dihydrobenzofuran-4-yl)piperidin-1-yl)ethanol], the IC50 at Wild-Type ALK was 15 nM; on ALK L1196M, below 0.5 nM; with NCI-H3122, 10.7 nM. For the same molecule, the GI50 at TEL-ALK-G1202R-BaF3 is above 180 nM; on TEL-ALK-F1174L-BaF3, 80.1 nM.

As to `Cc1cc(Nc2ncc(Cl)c(Nc3cn(C)nc3S(=O)(=O)C(C)C)n2)c2c(c1C1CCN(C(C)C)CC1)C[C@@H](C)O2` [REX-D14, (R)-5-chloro-N^2-(4-(1-isopropylpiperidin-4-yl)-2,5-dimethyl-2,3-dihydrobenzofuran-7-yl)-N^4-(3-(isopropylsulfonyl)-1-methyl-1H-pyrazol-4-yl)pyrimidine-2,4-diamine], the IC50 at Wild-Type ALK was 15.7 nM; at ALK L1196M it was 1.1 nM; in the assay with NCI-H3122, 10.7 nM. Moreover, the GI50 on TEL-ALK-G1202R-BaF3 was above 180 nM; at TEL-ALK-F1174L-BaF3, 11.2 nM.

`Cc1cc(Nc2ncc(Cl)c(Nc3ccccc3S(=O)(=O)C(C)C)n2)c(OC(C)C)cc1C1CCNCC1` [Ceritinib, reference compound] displayed an IOD in [1] (added at 6 hpf, images at 3 dpf) of 35.5 ± 7.0. Besides, the inhibition at 15 µM in [1] (Danio rerio, iridophore pigment, 3 dpf, read-out: Inhibition rate %) turned out to be 95%. Further, the IC50 with Karpas-299 is 40 to 85 nM; in the assay with NCI-H3122, 40.7 nM. Also, the GI50 on TEL-ALK-G1202R-BaF3 was above 180 nM; at TEL-ALK-F1174L-BaF3, 36.1 nM; on TEL-ALK-C1156Y-BaF3, 36.5 nM. Further, the TGI in the assay with NCI-H2228 tumor cells (30 mg/kg PO QD 14 days, at 14 days after administration) was found to be 94.7%; with NCI-H2228 tumor cells (30 mg/kg PO QD 14 days, end of the experiment (15 days after the administration)), 95.3%. The molecule also registered a tumor volume in the assay on NCI-H2228 tumor cells (30 mg/kg PO QD 14 days, at 14 days after administration (first day after administration end)) of 17 mm^3. In addition, the anti-tumor effect entry in the assay on NCI-H2228 tumor cells (30 mg/kg, once a day, continuously for 14 days) is “significant anti-tumor effect”.

For the molecule `CCn1cc(Nc2nc(Nc3cc(C)c(C4CCN(C)CC4)c4c3O[C@H](C)C4)ncc2Cl)c(S(=O)(=O)C(C)C)n1` [REX-D36, (R)-5-chloro-N^2-(2,5-dimethyl-4-(1-methylpiperidin-4-yl)-2,3-dihydrobenzofuran-7-yl)-N^4-(1-ethyl-3-(isopropylsulfonyl)-1H-pyrazol-4-yl)pyrimidine-2,4-diamine], the IC50 at Wild-Type ALK is 9.28 nM; at ALK L1196M it was 0.55 nM; in the assay with NCI-H3122, 11.4 nM. The GI50 is above 180 nM on TEL-ALK-G1202R-BaF3 and 22.4 nM on TEL-ALK-F1174L-BaF3.

On to `Cc1cc(Nc2ncc(Cl)c(Nc3cn(C4CC4)nc3S(=O)(=O)C(C)C)n2)c2c(c1C1CCN(C)CC1)C[C@@H](C)O2` [REX-D34, (R)-5-chloro-N^4-(1-cyclopropyl-3-(isopropylsulfonyl)-1H-pyrazol-4-yl)-N^2-(2,5-dimethyl-4-(1-methylpiperidin-4-yl)-2,3-dihydrobenzofuran-7-yl)pyrimidine-2,4-diamine], for which the IC50 amounted to 9.4 nM against Wild-Type ALK, 1.12 nM at ALK L1196M and 13.9 nM with NCI-H3122. Besides, the GI50 was above 180 nM at TEL-ALK-G1202R-BaF3 and 26.1 nM on TEL-ALK-F1174L-BaF3.

Values taken from US10710993B2, “Benzofuran pyrazole amine kinase inhibitor” (Hangzhou REX Pharmaceutical Co., LTD., priority 2016, dated 2020).
